We go through 20 compounds from PubChem BioAssay (NCI).

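Grown in 96-well plates, cells were treated for 48 hours with each compound at five concentrations. Insufficient inhibition: endpoint recorded as highest concentration tested. At the GI50, growth is halved. TGI: total growth inhibition.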 Some results are limits rather than exact numbers.

Test systems include SK-MEL-2 melanoma; HOP-62 NSCLC; OVCAR-3 ovarian; LOX IMVI melanoma; SNB-19 CNS; HS 578T breast; SK-MEL-28 melanoma; SF-268 CNS; RXF 393 renal; UO-31 renal.
What all share (assay): inhibition of tumour cell growth, NCI panel, 48 h

Consider `O=C(N/N=C(/COc1ccc(Cl)cc1)N=Cc1cccnc1)c1ccncc1`, for which the TGI was > 100 µM in the test with SK-MEL-2 melanoma; > 100 µM in the test with HOP-62 NSCLC; > 100 µM with OVCAR-3 ovarian; > 100 µM in the test with LOX IMVI melanoma; > 100 µM with SNB-19 CNS; 94.9 µM in the test with HS 578T breast. The TGI in the test with SK-MEL-28 melanoma, in the test on SF-268 CNS and in the test on RXF 393 renal was > 100 µM throughout.

Take `C#CCn1ncc2c(SC)ncnc21`: the TGI in the test on SK-MEL-2 melanoma, with HOP-62 NSCLC, in the test on OVCAR-3 ovarian, with LOX IMVI melanoma, in the test with UO-31 renal and in the test with SNB-19 CNS was > 100 µM in each case. Also, the TGI with HS 578T breast, with SK-MEL-28 melanoma, in the test with SF-268 CNS and in the test on RXF 393 renal was > 100 µM throughout.

Take `OC1(c2ccc(Cl)cc2)c2c(ccc3c2OCO3)C2=NCCN21` (configuration not stated): the TGI in the test on SK-MEL-2 melanoma is 43.4 µM; in the test with HOP-62 NSCLC, > 100 µM; in the test on OVCAR-3 ovarian, > 100 µM; in the test on LOX IMVI melanoma, > 100 µM; in the test on UO-31 renal, > 100 µM; with SNB-19 CNS, > 100 µM. Further, the TGI in the test on HS 578T breast was 76.7 µM; with SK-MEL-28 melanoma it was 34.6 µM; in the test on SF-268 CNS, > 100 µM; with RXF 393 renal, 86 µM.

On to `Cn1c(-c2cccs2)cc(-c2ccccc2)c1-c1cccs1`, for which the TGI in the test with SK-MEL-2 melanoma is > 100 µM; with HOP-62 NSCLC, 51.5 µM; in the test with OVCAR-3 ovarian, 47.6 µM; with LOX IMVI melanoma, > 100 µM; with UO-31 renal, > 100 µM; in the test on SNB-19 CNS, 47.5 µM. Moreover, the TGI in the test on HS 578T breast, in the test with SK-MEL-28 melanoma, in the test on SF-268 CNS and with RXF 393 renal was > 100 µM each time.

As for `O=C1N(c2ccccc2)C2(c3ccccc3)CC3CCCC13S2` (configuration not stated), the TGI with SK-MEL-2 melanoma was 80.9 µM; in the test on HOP-62 NSCLC it was > 100 µM; with OVCAR-3 ovarian it was > 100 µM; with LOX IMVI melanoma, > 100 µM; in the test on UO-31 renal, > 100 µM; in the test with SNB-19 CNS, > 100 µM. The TGI in the test with HS 578T breast, with SK-MEL-28 melanoma, with SF-268 CNS and in the test with RXF 393 renal was > 100 µM each time.

`O=C(C=P(c1ccccc1)(c1ccccc1)c1ccccc1)c1cccc(-c2cccc([N+](=O)[O-])c2)c1`: the TGI with HOP-62 NSCLC was > 100 µM; with OVCAR-3 ovarian, > 100 µM; with LOX IMVI melanoma it was 9.63 µM; in the test with UO-31 renal, 20.3 µM; in the test with SNB-19 CNS, > 100 µM; in the test with HS 578T breast, > 100 µM. The TGI in the test with SK-MEL-28 melanoma was 10.9 µM; in the test with SF-268 CNS, > 100 µM; with RXF 393 renal, > 100 µM.

As for `COc1ccc2c(c1)CCN=C2Cc1cc(OC)c(OC)cc1CCCl`, the TGI in the test on SK-MEL-2 melanoma was > 100 µM; in the test on HOP-62 NSCLC, 49.6 µM; in the test on OVCAR-3 ovarian, > 100 µM; in the test with LOX IMVI melanoma, > 100 µM; in the test with UO-31 renal, > 100 µM; with SNB-19 CNS it was > 100 µM. Besides, the TGI in the test with HS 578T breast is 81.7 µM; with SK-MEL-28 melanoma, > 100 µM; with SF-268 CNS it was > 100 µM; in the test on RXF 393 renal, 91.4 µM.

Take `O=Cc1cc([N+](=O)[O-])no1`: the TGI is 57.4 µM in the test with SK-MEL-2 melanoma; > 100 µM in the test with HOP-62 NSCLC; > 100 µM in the test with OVCAR-3 ovarian; > 100 µM with LOX IMVI melanoma; > 100 µM in the test on UO-31 renal; > 100 µM with SNB-19 CNS. For the same compound, the TGI with HS 578T breast, with SK-MEL-28 melanoma and in the test with RXF 393 renal was > 100 µM throughout.

`Cc1cc2c(cc1Cl)SC(c1ccccc1)C(=O)NS2(=O)=O` (configuration not stated): the TGI is 32.9 µM in the test with SK-MEL-2 melanoma; > 100 µM in the test with HOP-62 NSCLC; 53.4 µM with OVCAR-3 ovarian; > 100 µM with LOX IMVI melanoma; 75.1 µM with UO-31 renal; 59.4 µM in the test with HS 578T breast. In addition, the TGI in the test on SK-MEL-28 melanoma, with SF-268 CNS and in the test with RXF 393 renal was > 100 µM in each case.

With `CCOC(=O)C[C@@H]1C2(C=C[C@@]13CO3)OCC(C)(C)CO2`, the TGI in the test with SK-MEL-2 melanoma, in the test with HOP-62 NSCLC, with OVCAR-3 ovarian, in the test with LOX IMVI melanoma, in the test on UO-31 renal and in the test with HS 578T breast was > 100 µM throughout. Moreover, the TGI in the test with SK-MEL-28 melanoma, with SF-268 CNS and in the test with RXF 393 renal was > 100 µM in each case.

For the compound `CN(c1cc2ncc(=O)[nH]c2cc1NC(N)=NCc1ccc(Cl)cc1)C1CCCCC1`, the GI50 in the test with SK-MEL-2 melanoma was 8.83 µM; in the test with HOP-62 NSCLC it was 8.84 µM; in the test with OVCAR-3 ovarian it was 6.78 µM; with LOX IMVI melanoma it was 1750 nM; in the test on UO-31 renal, 8.21 µM; in the test with HS 578T breast, 6.53 µM. Besides, the GI50 is 6.71 µM with SK-MEL-28 melanoma, 6.89 µM in the test on SF-268 CNS and 5.79 µM in the test on RXF 393 renal. Also, the TGI was 18.3 µM in the test with SK-MEL-2 melanoma; 19.6 µM in the test on HOP-62 NSCLC; 13.6 µM in the test with OVCAR-3 ovarian; 5.88 µM with LOX IMVI melanoma; 15.8 µM in the test on UO-31 renal; 16 µM in the test on HS 578T breast. Moreover, the TGI was determined as 13.7 µM in the test on SK-MEL-28 melanoma, 14.7 µM with SF-268 CNS and 13 µM with RXF 393 renal.

Regarding `O=C(C[C@H](NC(=O)OCc1ccccc1)C(=O)NC1Cc2ccccc2OC1=O)OCc1ccccc1` (some centres not stated), the TGI with SK-MEL-2 melanoma, in the test with HOP-62 NSCLC, with OVCAR-3 ovarian, with UO-31 renal, in the test with SNB-19 CNS and with HS 578T breast was > 100 µM each time. For the same compound, the TGI in the test on SK-MEL-28 melanoma and in the test on RXF 393 renal was > 100 µM each time.

`CCN(CC)CCCC(C)Nc1ccnc2cc3ccccc3cc12` (configuration not stated): the TGI with SK-MEL-2 melanoma is 52.4 µM; with HOP-62 NSCLC it was > 100 µM; in the test on OVCAR-3 ovarian, > 100 µM; with LOX IMVI melanoma it was > 100 µM; in the test with UO-31 renal, 53.9 µM; in the test with SNB-19 CNS, 84.5 µM. Moreover, the TGI in the test on HS 578T breast is > 100 µM; with SF-268 CNS it was 22.1 µM; in the test with RXF 393 renal, 31.4 µM.

As for `Nc1ccc(-c2cssc2=S)cc1`, the TGI with SK-MEL-2 melanoma was 77 µM; in the test on HOP-62 NSCLC it was > 100 µM; in the test on LOX IMVI melanoma, > 100 µM; in the test with UO-31 renal, > 100 µM; in the test on SNB-19 CNS it was > 100 µM; in the test with HS 578T breast it was > 100 µM. Moreover, the TGI in the test on SK-MEL-28 melanoma, in the test with SF-268 CNS and in the test with RXF 393 renal was > 100 µM in each case.

As for `CC(C)CCC[C@@H](C)[C@H]1CC[C@H]2[C@@H]3CC[C@H]4C[C@H](N)CC[C@]4(C)[C@H]3CC[C@]12C`, the TGI in the test with HOP-62 NSCLC was 70.7 µM; in the test with OVCAR-3 ovarian it was > 100 µM; in the test on LOX IMVI melanoma, 83 µM; in the test with UO-31 renal it was 30.3 µM; with SNB-19 CNS it was 46.9 µM; in the test with HS 578T breast, 76.3 µM. Also, the TGI in the test on SK-MEL-28 melanoma was 95 µM; with SF-268 CNS, > 100 µM; in the test on RXF 393 renal it was > 100 µM.

Regarding `O=c1cc(-c2ccc(O)cc2)n(C2CC2)c2ccccc12`, the TGI in the test on SK-MEL-2 melanoma was 8.2 µM; in the test on HOP-62 NSCLC, 21.3 µM; in the test on OVCAR-3 ovarian it was 16.8 µM; in the test on LOX IMVI melanoma it was 16.7 µM; with UO-31 renal, 21.1 µM; with SNB-19 CNS it was 50.1 µM. Moreover, the TGI in the test with HS 578T breast came out at 24.8 µM; in the test on SF-268 CNS, 24.5 µM; in the test with RXF 393 renal, 8.42 µM.

As for `CC(=O)Nc1ccc(N=C2C(c3ccccc3)=C(SC3=C(c4ccccc4)C(=Nc4ccc(NC(C)=O)cc4)c4ccccc43)c3ccccc32)cc1`, the TGI in the test on SK-MEL-2 melanoma, with HOP-62 NSCLC, in the test with OVCAR-3 ovarian, in the test on LOX IMVI melanoma, with UO-31 renal and in the test with SNB-19 CNS was > 100 µM each time. Besides, the TGI with SK-MEL-28 melanoma was > 100 µM; in the test with SF-268 CNS, > 100 µM; in the test on RXF 393 renal, 82.8 µM.

In the case of `CO/C=C(/C(=O)OC)c1ccccc1[C@@H]1CC1c1cccc(F)c1` (some centres not stated), the TGI in the test with SK-MEL-2 melanoma is 37.4 µM; in the test on HOP-62 NSCLC it was > 100 µM; in the test on OVCAR-3 ovarian, > 100 µM; with UO-31 renal it was > 100 µM; in the test on SNB-19 CNS, > 100 µM; with HS 578T breast, > 100 µM. The TGI with SK-MEL-28 melanoma, in the test on SF-268 CNS and in the test on RXF 393 renal was > 100 µM each time.

In the case of `COc1ccc(C2CC(c3cccc(Nc4ccncc4)c3)=NN2c2ccc(Cl)cc2)cc1` (configuration not stated), the GI50 was 2.07 µM in the test on SK-MEL-2 melanoma; 1.67 µM with OVCAR-3 ovarian; 1660 nM in the test on LOX IMVI melanoma; 1.2 µM with UO-31 renal; 1660 nM in the test with SNB-19 CNS; 1.77 µM with HS 578T breast. In addition, the GI50 is 1.73 µM in the test on SK-MEL-28 melanoma, 1.72 µM in the test on SF-268 CNS and 1.59 µM in the test with RXF 393 renal. Moreover, the TGI with SK-MEL-2 melanoma was determined as 4.28 µM; in the test on OVCAR-3 ovarian, 3.15 µM; in the test on LOX IMVI melanoma, 3.03 µM; in the test on UO-31 renal it was 2.51 µM; with SNB-19 CNS, 3.23 µM; with HS 578T breast it was 3.68 µM. Further, the TGI in the test on SK-MEL-28 melanoma came out at 3.2 µM; in the test with SF-268 CNS, 3.43 µM; in the test with RXF 393 renal it was 3.03 µM.

Turning to `CCN1C=C/C(=C\C=C/c2cc[n+](CC)c3ccccc23)c2ccccc21`, the TGI in the test on SK-MEL-2 melanoma is 21.2 µM; in the test with HOP-62 NSCLC, 8.18 µM; in the test on OVCAR-3 ovarian, 6.81 µM; in the test with UO-31 renal it was 35.6 µM; with SNB-19 CNS, 15.2 µM; in the test with HS 578T breast it was 24.6 µM. The TGI came out at 21.8 µM in the test on SK-MEL-28 melanoma, 19.6 µM in the test on SF-268 CNS and 70.3 µM in the test with RXF 393 renal.
